# Measured values from patent US11136551B2, “In vitro method of differentiating a human pluripotent stem cell population into a cardiomyocyte cell population” (Ncardia B.V., priority 2015, dated 2021).
# Tests used:
# [1] = system: human pluripotent stem cells; test: In vitro differentiation of human pluripotent stem cells into cardiomyocytes: yield and progress of differentiation; type: cell-based; conditions: in combination with XAV-939, relative to IWP-L6
# Protocol: IGF may be added during any stage of the method of differentiating the human pluripotent stem cell population. IGF may, for example, be provided to the human pluripotent stem cell population immediately after plating or passaging the cells (i.e. after transferring of a small number of cells into a new vessel for cultivating) and before, for example, step a) is performed (the contacting of the cells with at least the Wnt-signaling agonist), or before step b) is performed (the contacting of the cells with XAV-939 and IWP-L6 and/or C-59). […]
# For differentiation, cells were seeded in 12-well plates at density of 60,000 cells per well or a split ratio that was empirically determined to give 30-80% confluence after 4 days. […]
# Cell numbers were determined with a Fuchs-Rosenthal counting chamber. […] Cells were counted and number of cells was determined using following equations: cells/ml=average count per square×dilution factor×5000 total cells=cells/ml×total original volume of cell suspension from which sample was taken. […] GFP fluorescence reports the expression of the endogenous NKX2.5 gene and enables identification/quantification of hPSC-derived cardiomyocytes during differentiation. Method of Measuring TNNT2 (Using FACS) The percentage TNNT2 expressing cells was measured by flow cytometric analysis. […]
# dishevelled 2 (Dvl2) = conditions: HEK293 cells; cited from earlier work
# [2] = system: NKX2-5-GFP reporter stem cells; test: Percentage of cardiomyocytes by flow cytometry of GFP positive cells at day 14; type: cell-based, human; conditions: FIG. 3, reduction of IWP-L6 from 2 microMolar to 0.25 microMolar
# Protocol: For differentiation, cells were seeded in 12-well plates at density of 60,000 cells per well or a split ratio that was empirically determined to give 30-80% confluence after 4 days. Culture media was […] days with a differentiation media as disclosed herein, for example containing 46.5% IMDM (Gibco 21056), 0.25% Bovostar BSA, 46.5% Ham's F12 with Glutamax, 2 mM Glutamax, 450 nM […], 0.05 mg/ml ascorbic acid, 0.5% 5000 U/ml Pen/Strep (Gibco 12070), 0.01% 1000* Trace elements mix B (Cellgro 99-176-CL), 0.1% 1000* Trace elements mix C (Cellgro 99-176-CL). In several experiments 0.1% ITS-x was used from day 4-14, i.e. during differentiation of the cells. Cell numbers were determined with a Fuchs-Rosenthal counting chamber. […] Cells were counted and number of cells was determined using following equations: cells/ml=average count per square×dilution factor×5000 total cells=cells/ml×total original volume of cell suspension from which sample was taken. […] GFP fluorescence reports the expression of the endogenous NKX2.5 gene and enables identification/quantification of hPSC-derived cardiomyocytes during differentiation. Method of Measuring TNNT2 (Using FACS) The percentage TNNT2 expressing cells was measured by flow cytometric analysis. […] Percentage of cardiomyocytes was determined at day 14 of differentiation using flow cytometry for detection/quantification of GFP positive cells. […]
# hIPSC lines = test: Percentage of cardiomyocytes by flow cytometry for Troponin-T (TNNT-2) at day 14; type: cell-based, human; conditions: for differentiation efficiency (TNNT-2 positive cells): FIG. 5, day 14
# Protocol: For differentiation, cells were seeded in 12-well plates at density of 60,000 cells per well or a split ratio that was empirically determined to give 30-80% confluence after 4 days. Culture media was […] days with a differentiation media as disclosed herein, for example containing 46.5% IMDM (Gibco 21056), 0.25% Bovostar BSA, 46.5% Ham's F12 with Glutamax, 2 mM Glutamax, 450 nM […], 0.05 mg/ml ascorbic acid, 0.5% 5000 U/ml Pen/Strep (Gibco 12070), 0.01% 1000* Trace elements mix B (Cellgro 99-176-CL), 0.1% 1000* Trace elements mix C (Cellgro 99-176-CL). In several experiments 0.1% ITS-x was used from day 4-14, i.e. during differentiation of the cells. Cell numbers were determined with a Fuchs-Rosenthal counting chamber. Briefly, cells grown in monolayer cultures were detach from surface of plate using TrypLETM Select Enzyme (Life Technologies). A uniform cell suspension was transferred to the edge of hemocytometer counting chamber. Cells were counted and number of cells was determined using following equations: cells/ml=average count per square×dilution factor×5000 total cells=cells/ml×total original volume of cell suspension from which sample was taken. Method of Measuring NKX2.5 NKX-GFP reporter hESC and iPSC cells have been described previously. These cells express the fluorescent protein GFP under the control of the endogenous NKX2-5 promoter. GFP+ve cells mark cardiomyocytes (Elliott D A et al. Nat. Methods, 8 (2011), pp. 1037-1040; van den Berg C W et al., Development. 2015 Jul. 24. pii: dev.123810. [Epub ahead of print]). NKX 2.5 is transcription factor essential for heart development and it is expressed in the heart throughout life. GFP fluorescence reports the expression of the endogenous NKX2.5 gene and enables identification/quantification of hPSC-derived cardiomyocytes during differentiation. Method of Measuring TNNT2 (Using FACS) The percentage TNNT2 expressing cells was measured by flow cytometric analysis. Briefly, cells were dissociated with TrypLETM Select Enzyme (Life Technologies), washed with PBS, fixed and permeabilized with FIX & PERM® Cell Fixation and Permeabilization Kit (Life Technologies). Samples were incubated with Troponin T (TNNT2), Cardiac Isoform Ab-1, Mouse Monoclonal Antibody (ThermoFisher, MS-295-P1; at 1:1000 dilution) followed by incubation with secondary antibody Donkey Anti-mouse APC (Jackson Immuno, 715-136-151; at 1:500 dilution) both diluted in Fix&Perm Medium B. Samples were analyzed on a NovocyteTM Flow Cytometer (ACEA Bioscicences) or a MACSQuant VYB instrument (Miltenyi Biotech). […] Two […] cultured on feeders in KOSR (InvitroGen)/FGF supplemented DMEM-F12. To start differentiation, cells were dissociated using Accutase and resuspended in mTesR at a concentration of 60,000/ml cells, the cell suspension was seeded onto Matrigel coated 12-well plates. Cells were maintained for 4 days before onset of differentiation. Cells were treated for 2 days with 5 microMolar CHIR99021, followed by 2 days culture in the presence of specific Wnt inhibiting small molecules, next the cells were cultured for 10 days in differentiation medium. Percentage of cardiomyocytes (FIG. 4A; % TNNT2 positive cells at day 14) was determined at day 14 of differentiation using flow cytometry for the pan-cardiac marker Troponin-T (TNNT-2). […] Presence and absence or concentration have no significant effect on the total number of cells (FIG. 4B; cell count at day 14, in million cells/well). […]
structure (smiles),measurement,setting,value
"Cc1cc(-c2ccc(CC(=O)Nc3ccc(-c4cccnc4)cc3)cc2)ccn1 [C59, 2-[4-(2-methylpyridin-4-yl)phenyl]-N-(4-pyridin-3-ylphenyl)acetamide]",toxicity to the human pluripotent stem cells,[1],more toxic
same,yield of cell obtained with the method,[1]; data not shown,reduced yield
"O=C(CSc1nc2c(c(=O)n1-c1ccccc1)SCC2)Nc1ccc(-c2ccccc2)cn1 [IWP-L6, 2-[(4-oxo-3-phenyl-6,7-dihydrothieno[3,2-d]pyrimidin-2-yl)sulfanyl]-N-(5-phenylpyridin-2-yl)acetamide]",phosphorylation of dishevelled 2 (Dvl2),dishevelled 2 (Dvl2),suppress phosphorylation of dishevelled 2 (Dvl2)
same,differentiation efficiency (GFP positive cells),[2],increases the differentiation efficiency even further
same,differentiation (% TNNT2 positive cells at day 14),"hIPSC lines; FIG. 4A, addition of IWP-L6 at 0.25 microMolar to XAV939",further improves the differentiation
same,differentiation efficiency (TNNT-2 positive cells),hIPSC lines; alone,about 70%
"O=c1[nH]c(-c2ccc(C(F)(F)F)cc2)nc2c1CSCC2 [XAV-939, 3,5,7,8-Tetrahydro-2-[4-(trifluoromethyl)phenyl]-4H-thiopyrano[4,3-d]pyrimidin-4-one]",differentiation efficiency (% TNNT2 positive cells at day 14),"hIPSC lines; FIG. 4A, further increase of concentration above 5 microMolar",reduces differentiation efficiency
same,optimal concentration (% TNNT2 positive cells at day 14),"hIPSC lines; FIG. 4A, titration of XAV-939, two hIPSC lines",5 microMolar
same,differentiation efficiency (TNNT-2 positive cells),hIPSC lines; addition of XAV939 to IWP-L6,further increased
